Reference: patent US10034879B2, “Substituted benzaldehyde compounds and methods for their use in increasing tissue oxygenation” (Global Blood Therapeutics, Inc., priority 2011, dated 2018)

The compounds below were run against T1, purified Hemoglobin S (HbS) (Homo sapiens, UniProt P68871+P69905, E7V) (assay: Oxygen equilibrium curves (OEC) in purified HbS, HEMOX analyzer, change in p50). Conditions: compound at 30 μM; 25 μM purified HbS.
T1 construct: HbS was purified by a modified procedure; from tissue; host or cells: blood of homozygous sickle cell patients
Format: biochemical
Description: Oxygen equilibrium curves (OEC) in purified Hemoglobin S (HbS) were measured by the change in p50, the partial pressure of oxygen at which the heme binding sites in the HbS sample are 50% saturated with oxygen. HbS was purified by a modified procedure (Antonini and Brunori, 1971; Heomoglobin and Myoglobin in their Reactions with Ligands; North Holland Publishing Company; Amsterdam, London) from blood obtained from homozygous sickle cell patients though the Hemoglobinopathy Center at Children's Hospital Oakland Research Institute (CHORI) with Institutional Review Board approval. Oxygen equilibrium curves were carried out with a HEMOX analyzer, (TCS Scientific, New Hope, Pa.). Five hundred μL of 250 μM purified HbS were diluted into 4.5 mL of HEMOX buffer (30 mM TES, 130 mM NaCl, 5 mM KCl, pH=7.4) resulting in a final hemoglobin concentration of 25 μM. The compounds were added at the final desired concentrations. The mixture was incubated for 45 min at 37° C. and then transferred to the Hemox sample chamber. The samples were saturated with oxygen by flushing with compressed air for 10 minutes. The samples were then flushed with pure nitrogen and the absorbance of deoxy-Hb was recorded as a function of the solution pO2. The oxygen equilibrium data was then fit to the Hill Model to obtain values for p50. The deoxygenation curves for both HbS alone (control) and HbS in the presence of compound were collected with the TCS software. The p50 for purified Hbs was typically 13.8±1.6. Delta p50 values were obtained from the p50 value for control minus the p50 value for HbS treated with compound divided by the p50 value for the control.
The compounds of Table 1 that were where tested in the assay above were all found to have positive delta p50 values. Delta p50% is calculated from [[p50(HbS)−p50(HbS treated with compound)]/p50(HbS)]×100. Table 2 below lists the delta p50% values where + indicates a delta p50% of between 0 and 29 and ++ indicates a delta p50% of 30 or greater. Unless noted otherwise, the compounds in Table 2 were tested at 30 μM.

SMILES	delta p50
COc1ccc(OCc2ccn3ccnc3c2)c(C=O)c1 [Compound 8, 2-(imidazo[1,2-a]pyridin-7-ylmethoxy)-5-methoxybenzaldehyde]	+ (+ indicates a delta p50% of between 0 and 29)
COc1ccc(OCc2cn3ccccc3n2)c(C=O)c1 [Compound 5, 2-(imidazo[1,2-a]pyridin-2-ylmethoxy)-5-methoxybenzaldehyde]	++ (++ indicates a delta p50% of 30 or greater)
COc1ccc(OCc2cnc3ccccn23)c(C=O)c1 [Compound 9, 2-(imidazo[1,2-a]pyridin-3-ylmethoxy)-5-methoxybenzaldehyde]	+ (+ indicates a delta p50% of between 0 and 29)
O=Cc1ccc(F)cc1OCc1cccn2ccnc12 [Compound 14, 4-fluoro-2-(imidazo[1,2-a]pyridin-8-ylmethoxy)benzaldehyde]	+ (+ indicates a delta p50% of between 0 and 29)
COc1ccc(OCc2cccn3ccnc23)c(C=O)c1 [Compound 1, 2-(imidazo[1,2-a]pyridin-8-ylmethoxy)-5-methoxybenzaldehyde]	++ (++ indicates a delta p50% of 30 or greater)
O=Cc1ccccc1C(=O)Nc1cccn2ccnc12 [Compound 40, 2-formyl-N-(imidazo[1,2-a]pyridin-8-yl)benzamide]	+ (+ indicates a delta p50% of between 0 and 29)
O=Cc1cc(Br)ccc1OCc1cccn2ccnc12 [Compound 11, 5-bromo-2-(imidazo[1,2-a]pyridin-8-ylmethoxy)benzaldehyde]	+ (+ indicates a delta p50% of between 0 and 29)
N#Cc1ccc(OCc2cccn3ccnc23)c(C=O)c1 [Compound 35, 3-formyl-4-(imidazo[1,2-a]pyridin-8-ylmethoxy)benzonitrile]	+ (+ indicates a delta p50% of between 0 and 29)
COc1ccc(OCc2cccc3nccn23)c(C=O)c1 [Compound 37, 2-(imidazo[1,2-a]pyridin-5-ylmethoxy)-5-methoxybenzaldehyde]	+ (+ indicates a delta p50% of between 0 and 29)
COc1ccc(OCc2cccc3c2cnn3C)c(C=O)c1 [Compound 23, 5-methoxy-2-((1-methyl-1H-indazol-4-yl)methoxy)benzaldehyde]	++ (++ indicates a delta p50% of 30 or greater)
COc1ccc(OCc2cccc3[nH]ncc23)c(C=O)c1 [Compound 25, 2-((1H-indazol-4-yl)methoxy)-5-methoxybenzaldehyde]	++ (++ indicates a delta p50% of 30 or greater)
COc1ccc(OCc2cccn3cncc23)c(C=O)c1 [Compound 7, 2-(imidazo[1,5-a]pyridin-8-ylmethoxy)-5-methoxybenzaldehyde]	++ (++ indicates a delta p50% of 30 or greater)
COc1ccc(OCc2ccc3nccn3c2)c(C=O)c1 [Compound 4, 2-(imidazo[1,2-a]pyridin-6-ylmethoxy)-5-methoxybenzaldehyde]	+ (+ indicates a delta p50% of between 0 and 29)
N#Cc1ccc(C=O)c(OCc2cccn3ccnc23)c1 [Compound 2, 4-formyl-3-(imidazo[1,2-a]pyridin-8-ylmethoxy)benzonitrile]	+ (+ indicates a delta p50% of between 0 and 29)
Cc1ccc(OCc2cccn3ccnc23)c(C=O)c1 [Compound 16, 2-(imidazo[1,2-a]pyridin-8-ylmethoxy)-5-methylbenzaldehyde]	+ (+ indicates a delta p50% of between 0 and 29)
COc1ccc(OCc2ccc3cncn3c2)c(C=O)c1 [Compound 34, 2-(imidazo[1,5-a]pyridin-6-ylmethoxy)-5-methoxybenzaldehyde]	+ (+ indicates a delta p50% of between 0 and 29)
COc1ccc(OCc2cn3cccc(C)c3n2)c(C=O)c1 [Compound 24, 5-methoxy-2-((8-methylimidazo[1,2-a]pyridin-2-yl)methoxy)benzaldehyde]	++ (++ indicates a delta p50% of 30 or greater)
COc1ccc(OCc2cccc3ncccc23)c(C=O)c1 [Compound 10, 5-methoxy-2-(quinolin-5-ylmethoxy)benzaldehyde]	++ (++ indicates a delta p50% of 30 or greater)
O=Cc1ccccc1OCc1cccn2ccnc12 [Compound 13, 2-(imidazo[1,2-a]pyridin-8-ylmethoxy)benzaldehyde]	+ (+ indicates a delta p50% of between 0 and 29)

Same assay, conditions: compound at 100 μM; 25 μM purified HbS

SMILES	delta p50
O=Cc1ccc(Cl)cc1OCc1cccn2ccnc12 [Compound 12, 4-chloro-2-(imidazo[1,2-a]pyridin-8-ylmethoxy)benzaldehyde]	+ (100 μM) (+ indicates a delta p50% of between 0 and 29)
COc1ccc(C=O)c(OCc2cccn3ccnc23)c1 [Compound 3, 2-(imidazo[1,2-a]pyridin-8-ylmethoxy)-4-methoxybenzaldehyde]	+ (100 μM) (+ indicates a delta p50% of between 0 and 29)
COc1cccc(C=O)c1OCc1cccn2ccnc12 [Compound 15, 2-(imidazo[1,2-a]pyridin-8-ylmethoxy)-3-methoxybenzaldehyde]	+ (100 μM) (+ indicates a delta p50% of between 0 and 29)
COc1ccc(NC(=O)c2cccn3ccnc23)c(C=O)c1 [Compound 38, N-(2-formyl-4-methoxyphenyl)imidazo[1,2-a]pyridine-8-carboxamide]	++ (100 μM) (++ indicates a delta p50% of 30 or greater)
COc1ccc(OCc2ccnc3[nH]ccc23)c(C=O)c1 [Compound 21, 2-((1H-pyrrolo[2,3-b]pyridin-4-yl)methoxy)-5-methoxybenzaldehyde]	+ (100 μM) (+ indicates a delta p50% of between 0 and 29)
O=Cc1ccccc1NC(=O)c1cccn2ccnc12 [Compound 39, N-(2-formylphenyl)imidazo[1,2-a]pyridine-8-carboxamide]	+ (100 μM) (+ indicates a delta p50% of between 0 and 29)
COc1ccc(C=O)c(OCc2cccn3cncc23)c1 [Compound 6, 2-(imidazo[1,5-a]pyridin-8-ylmethoxy)-4-methoxybenzaldehyde]	+ (100 μM) (+ indicates a delta p50% of between 0 and 29)
COc1ccc(OCc2ccc3cnccn23)c(C=O)c1 [Compound 33, 5-methoxy-2-(pyrrolo[1,2-a]pyrazin-6-ylmethoxy)benzaldehyde]	+ (100 μM) (+ indicates a delta p50% of between 0 and 29)

Each compound was assayed against T2, HbS/A (Homo sapiens, UniProt P68871+P69905, E7V) (assay: Relaxed-to-tense transition assay (R/T assay)). Conditions: compound at 9 μM; 3 μM HbS/A.
T2 construct: A mixture of HbS/A was purified from blood; from tissue; host or cells: blood of homozygous sickle cell patients
Format: biochemical
Description: A relaxed-to-tense transition assay (“R/T assay”) was used to determine the ability of substituted benzaldehyde compounds to maintain the high-oxygen affinity relaxed (R) state of hemoglobin under deoxygenated conditions. This ability can be expressed as a “delta R” value (i.e., the change in the time-period of the R state after hemoglobin is treated with a compound, as compared to the period without treatment with the compound). Delta R is the % R to remaining after the compounds treatment compared with no treatment (e.g. if R % without treatment is 8% while with treatment with a target compound is 48% R at 30 μM, then % R is 40% for that compound.
A mixture of HbS/A was purified from blood obtained from homozygous sickle cell patients though the Hemoglobinopathy Center at Children's Hospital Oakland Research Institute (CHORI) with Institutional Review Board approval. HbS/A (at a final concentration of 3 μM) was incubated for 1 hr at 37° C. in presence or absence of compounds in […] potassium phosphate buffer, pH=7.4 and 30 μM 2, 3 diphosphoglycerate (DPG) in 96 well plates in a final volume of 160 μl. Compounds were added at different concentrations (3 μM to 100 μM final concentrations). Plates were covered with a Mylar film. After incubation was completed the Mylar cover was removed and the plates were placed in a Spectrostar Nano plate reader previously heated at 37° C. Five minutes later, N2 (flow rate=20 L/min) was flowed through the spectrophotometer. Spectroscopic measurements (300 nm to 700 nm) were taken every 5 min for 2 hours. Data analysis was performed by using linear regression from the data retrieved for all wavelengths.
Table 4 below lists the delta R values where + indicates a delta R of between 0 and 30, ++ indicates a delta R of between 30 and 50, and +++ indicates a delta R of 50 or greater. Unless noted otherwise, the compounds in Table 2 were tested at 9 μM.

SMILES	delta R (%)
COc1ccc(OCc2cn3ccccc3n2)c(C=O)c1 [Compound 5, 2-(imidazo[1,2-a]pyridin-2-ylmethoxy)-5-methoxybenzaldehyde]	++ (++ indicates a delta R of between 30 and 50)
COc1ccc(OCc2cccnc2)c(C=O)c1 [Compound 41, 5-methoxy-2-(pyridin-3-ylmethoxy)benzaldehyde]	+ (+ indicates a delta R of between 0 and 30)
COc1ccc(OCc2cccc3[nH]ncc23)c(C=O)c1 [Compound 25, 2-((1H-indazol-4-yl)methoxy)-5-methoxybenzaldehyde]	++ (++ indicates a delta R of between 30 and 50)
COc1ccc(OCc2cn3cccc(C)c3n2)c(C=O)c1 [Compound 24, 5-methoxy-2-((8-methylimidazo[1,2-a]pyridin-2-yl)methoxy)benzaldehyde]	+ (+ indicates a delta R of between 0 and 30)
COc1ccc(OCc2cccc3ncccc23)c(C=O)c1 [Compound 10, 5-methoxy-2-(quinolin-5-ylmethoxy)benzaldehyde]	++ (++ indicates a delta R of between 30 and 50)
